# Patent US20160060260A1, “BROMODOMAIN INHIBITORS FOR TREATING DISEASE” (Board of Regents, The University of Texas System, priority 2014, published 2016)
# Target: T1, Recombinant human His-tagged Trim24-PHD-bromodomain (Homo sapiens, UniProt O15164)
# T1 construct: Recombinant human His-tagged Trim24-PHD-bromodomain (produced in-house); made in house
# T1 sequence (O15164 824-1006 limits assumed): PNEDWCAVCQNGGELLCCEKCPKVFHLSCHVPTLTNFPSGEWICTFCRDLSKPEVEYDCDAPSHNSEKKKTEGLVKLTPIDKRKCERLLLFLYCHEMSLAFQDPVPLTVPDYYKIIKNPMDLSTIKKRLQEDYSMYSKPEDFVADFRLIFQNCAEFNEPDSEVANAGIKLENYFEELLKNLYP
# Experiment: Trim24 AlphaScreen Assay
# Assay type: binding
# Conditions: 5 nM Trim24 protein, 15 nM biotinylated H3K23ac (1-33aa) peptide
# Procedure, shortened: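 AlphaScreen read-out after 2 h with streptavidin donor and Ni-chelate acceptor beads at 10 ug/mL each, following 1 h room-temperature incubation of compound, His-tagged PHD-bromodomain protein and biotin-H3K23ac (1-33aa) peptide in Hepes pH 7.5 buffer with NaCl and Triton X-100. Signals normalised between no-compound and no-protein wells; IC50 from four-parameter logistic curves.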
row,SMILES,IC50 [nM]
1,"CCCOc1cc(OCCCOC)cc(Oc2cc3c(cc2NS(=O)(=O)c2ccc(OC)c(NC(C)=O)c2)n(C)c(=O)n3C)c1 [Example 159, N-(2-methoxy-5-(N-(6-(3-(3-methoxypropoxy)-5-propoxyphenoxy)-1,3-dimethyl-2-oxo-2,3-dihydro-1H-benzo[d]imidazol-5-yl)sulfamoyl)phenyl)acetamide]",10 to 100
2,"CCCOc1cc(OCCCOC)cc(Oc2cc3c(cc2NS(=O)(=O)c2cccc(CC)c2)n(C)c(=O)n3C)c1 [Example 160, 3-ethyl-N-(6-(3-(3-methoxypropoxy)-5-propoxyphenoxy)-1,3-dimethyl-2-oxo-2,3-dihydro-1H-benzo[d]imidazol-5-yl)benzenesulfonamide]",100 to 1000
3,"CCCOc1cc(OCCCOC)cc(Oc2cc3c(cc2NS(=O)(=O)c2ccc(OCC)c(C)c2)n(C)c(=O)n3C)c1 [Example 161, 4-ehoxy-N-(6-(3-(3-methoxypropoxy)-5-propoxyphenoxy)-1,3-dimethyl-2-oxo-2,3-dihydro-benzo[d]imidazol-5-yl)-3-methylbenzenesulfonamide]",100 to 1000
4,"CCCOc1cc(OCCCOC)cc(Oc2cc3c(cc2NS(=O)(=O)c2ccc4c(c2)COC4)n(C)c(=O)n3C)c1 [Example 162, N-(6-(3-(3-methoxypropoxy)-5-propoxyphenoxy)-1,3-dimethyl-2-oxo-2,3-dihydro-1H-benzo[d]imidazol-5-yl)-1,3-dihydroisobenzofuran-5-sulfonamide]",100 to 1000
5,"CCCOc1cc(OCCCOC)cc(Oc2cc3c(cc2NS(=O)(=O)c2ccccc2)n(C)c(=O)n3C)c1 [Example 163, N-(6-(3-(3-methoxypropoxy)-5-propoxyphenoxy)-1,3-dimethyl-2-oxo-2,3-dihydro-1H-benzo[d]imidazol-5-yl)benzenesulfonamide]",100 to 1000
6,"CCCOc1cc(OCCCOC)cc(Oc2cc3c(cc2NS(=O)(=O)c2cccc(C(C)C)c2)n(C)c(=O)n3C)c1 [Example 164, 3-isopropyl-N-(6-(3-(3-methoxypropoxy)-5-propoxyphenoxy)-1,3-dimethyl-2-oxo-2,3-dihydro-1H-benzo[d]imidazol-5-yl)benzenesulfonamide]",100 to 1000
7,"CCCOc1cc(OCCCOC)cc(Oc2cc3c(cc2NS(=O)(=O)c2cccc(C#N)c2)n(C)c(=O)n3C)c1 [Example 165, 3-cyano-N-(6-(3-(3-methoxypropoxy)-5-propoxyphenoxy)-1,3-dimethyl-2-oxo-2,3-dihydro-1H-benzo[d]imidazol-5-yl)benzenesulfonamide]",10 to 100
8,"CCCOc1cc(OCCCOC)cc(Oc2cc3c(cc2NS(=O)(=O)c2cc(OC)cc(OC)c2)n(C)c(=O)n3C)c1 [Example 166, 3,5-dimethoxy-N-(6-(3-(3-methoxypropoxy)-5-propoxyphenoxy)-1,3-dimethyl-2-oxo-2,3-dihydro-1H-benzo[d]imidazol-5-yl)benzenesulfonamide]",100 to 1000
9,"CCCOc1cc(OCCCOC)cc(Oc2cc3c(cc2NS(=O)(=O)c2ccc(OC(F)F)cc2)n(C)c(=O)n3C)c1 [Example 167, 4-(difluoromethoxy)-N-(6-(3-(3-methoxypropoxy)-5-propoxyphenoxy)-1,3-dimethyl-2-oxo-2,3-dihydro-1H-benzo[d]imidazol-5-yl)benzenesulfonamide]",100 to 1000
10,"CCCOc1cccc(Oc2cc3c(cc2NS(=O)(=O)c2ccccn2)n(C)c(=O)n3C)c1 [Example 168, N-(1,3-dimethyl-2-oxo-6-(3-propoxyphenoxy)-2,3-dihydro-1H-benzo[d]imidazol-5-yl)pyridine-2-sulfonamide]",10 to 100
11,"CCCOc1cccc(Oc2cc3c(cc2NS(=O)(=O)c2cc(OC)cc(OC)c2)n(C)c(=O)n3C)c1 [Example 169, N-(1,3-dimethyl-2-oxo-6-(3-propoxyphenoxy)-2,3-dihydro-1H-benzo[d]imidazol-5-yl)-3,5-dimethoxybenzenesulfonamide]",100 to 1000
12,"CCCOc1cccc(Oc2cc3c(cc2NS(=O)(=O)c2cccc(OC)c2)n(C)c(=O)n3C)c1 [Example 170, N-(1,3-dimethyl-2-oxo-6-(3-propoxyphenoxy)-2,3-dihydro-1H-benzo[d]imidazol-5-yl)-3-methoxybenzenesulfonamide]",100 to 1000
13,"CCCOc1cccc(Oc2cc3c(cc2NS(=O)(=O)c2ccc(OC)cc2)n(C)c(=O)n3C)c1 [Example 171, N-(1,3-dimethyl-2-oxo-6-(3-propoxyphenoxy)-2,3-dihydro-1H-benzo[d]imidazol-5-yl)-4-methoxybenzenesulfonamide]",100 to 1000
14,"CCCOc1cccc(Oc2cc3c(cc2NS(=O)(=O)c2cccc4c2OCCO4)n(C)c(=O)n3C)c1 [Example 172, N-(1,3-dimethyl-2-oxo-6-(3-propoxyphenoxy)-2,3-dihydro-1H-benzo[d]imidazol-5-yl)-2,3-dihydrobenzo[b][1,4]dioxine-5-sulfonamide]",100 to 1000
15,"CCCOc1cccc(Oc2cc3c(cc2NS(=O)(=O)c2cccc(N(C)C)c2)n(C)c(=O)n3C)c1 [Example 173, N-(1,3-dimethyl-2-oxo-6-(3-propoxyphenoxy)-2,3-dihydro-1H-benzo[d]imidazol-5-yl)-3-(dimethylamino)benzenesulfonamide]",100 to 1000
16,"CCCOc1cccc(Oc2cc3c(cc2NS(=O)(=O)c2ccc(OC)c(NC(C)=O)c2)n(C)c(=O)n3C)c1 [Example 174, N-(5-(N-(1,3-dimethyl-2-oxo-6-(3-propoxyphenoxy)-2,3-dihydro-1H-benzo[d]imidazol-5-yl)sulfamoyl)-methoxyphenyl)acetamide]",10 to 100
17,"CCCOc1cc(OCCCOC)cc(Oc2cc3c(cc2NS(=O)(=O)c2cccc4c2OCCO4)n(C)c(=O)n3C)c1 [Example 175, N-(6-(3-(3-methoxypropoxy)-5-propoxyphenoxy)-1,3-dimethyl-2-oxo-2,3-dihydro-1H-benzo[d]imidazol-5-yl)-2,3-dihydrobenzo[b][1,4]dioxine-5-sulfonamide]",100 to 1000
18,"CCCOc1cc(OCCCOC)cc(Oc2cc3c(cc2NS(=O)(=O)c2cccc4[nH]c(=O)c(=O)[nH]c24)n(C)c(=O)n3C)c1 [Example 176, N-(6-(3-(3-methoxypropoxy)-5-propoxyphenoxy)-1,3-dimethyl-2-oxo-2,3-dihydro-1H-benzo[d]imidazol-5-yl)-2,3-dioxo-1,2,3,4-tetrahydroquinoxaline-5-sulfonamide]",10 to 100
19,"CCCOc1cc(OCCCOC)cc(Oc2cc3c(cc2NS(=O)(=O)c2ccc(N(C)C)cc2)n(C)c(=O)n3C)c1 [Example 177, 4-(dimethylamino)-N-(6-(3-(3-methoxypropoxy)-5-propoxyphenoxy)-1,3-dimethyl-2-oxo-2,3-dihydro-benzo[d]imidazol-5-yl)benzenesulfonamide]",100 to 1000
20,"CCCOc1cc(OCCCCCCO)cc(Oc2cc3c(cc2NS(=O)(=O)c2cnn(C)c2C)n(C)c(=O)n3C)c1 [Example 178, N-(6-(3-((6-hydroxyhexyl)oxy)-5-propoxyphenoxy)-1,3-dimethyl-2-oxo-2,3-dihydro-1H-benzo[d]imidazol-5-yl)-1,5-dimethyl-1H-pyrazole-4-sulfonamide]",10 to 100
21,"CCCOc1cc(OCCCCCCO)cc(Oc2cc3c(cc2NS(=O)(=O)c2ccc(OC)c(OC)c2)n(C)c(=O)n3C)c1 [Example 179, N-(6-(3-((6-hydroxyhexyl)oxy)-5-propoxyphenoxy)-1,3-dimethyl-2-oxo-2,3-dihydro-1H-benzo[d]imidazol-5-yl)-3,4-dimethoxybenzenesulfonamide]",10 to 100
22,"CCCOc1cc(OCCCCCCO)cc(Oc2cc3c(cc2NS(=O)(=O)c2cccnc2)n(C)c(=O)n3C)c1 [Example 180, N-(6-(3-((6-hydroxyhexyl)oxy)-5-propoxyphenoxy)-1,3-dimethyl-2-oxo-2,3-dihydro-1H-benzo[d]imidazol-5-yl)pyridine-3-sulfonamide]",10 to 100
23,"CCCOc1cc(OCCCCCCO)cc(Oc2cc3c(cc2NS(=O)(=O)c2cn(C)cn2)n(C)c(=O)n3C)c1 [Example 181, N-(6-(3-((6-hydroxyhexyl)oxy)-5-propoxyphenoxy)-1,3-dimethyl-2-oxo-2,3-dihydro-1H-benzo[d]imidazol-5-yl)-1-methyl-1H-imidazole-4-sulfonamide]",10 to 100
24,"CCCOc1cc(OCCCCCCN)cc(Oc2cc3c(cc2NS(=O)(=O)c2cn(C)c(C)n2)n(C)c(=O)n3C)c1 [Example 182, N-(6-(3-((6-aminohexyl)oxy)-5-propoxyphenoxy)-1,3-dimethyl-2-oxo-2,3-dihydro-1H-benzo[d]imidazol-5-yl)-1,2-dimethyl-1H-imidazole-4-sulfonamide]",10 to 100
25,"CCCOc1cc(OCCCCCCN)cc(Oc2cc3c(cc2NS(=O)(=O)c2cccnc2)n(C)c(=O)n3C)c1 [Example 183, N-(6-(3-((6-aminohexyl)oxy)-5-propoxyphenoxy)-1,3-dimethyl-2-oxo-2,3-dihydro-1H-benzo[d]imidazol-5-yl)pyridine-3-sulfonamide]",1 to 10
26,"COc1ccc(S(=O)(=O)Nc2cc3c(cc2Oc2cccc(OCC(F)(F)F)c2)n(C)c(=O)n3C)cc1OC [Example 184, N-(1,3-dimethyl-2-oxo-6-(3-(2,2,2-trifluoroethoxy)phenoxy)-2,3-dihydro-1H-benzo[d]imidazol-5-yl)-3,4-dimethoxybenzenesulfonamide]",10 to 100
27,"CCCOc1cc(OCCCCCCO)cc(Oc2cc3c(cc2NS(=O)(=O)c2cccc(C(=O)OC)c2)n(C)c(=O)n3C)c1 [Example 185, methyl 3-(N-(6-(3-((6-hydroxynhexyl)oxy)-5-propoxyphenoxy)-1,3-dimethyl-2-oxo-2,3-dihydro-1H-benzo[d]imidazol-5-yl)sulfamoyl)benzoate]",100 to 1000
28,"CCCOc1cc(OCCCCN)cc(Oc2cc3c(cc2NS(=O)(=O)c2cn(C)cn2)n(C)c(=O)n3C)c1 [Example 186, N-(6-(3-(4-aminobutoxy)-5-propoxyphenoxy)-1,3-dimethyl-2-oxo-2,3-dihydro-1H-benzo[d]imidazol-5-yl)-1-methyl-1H-imidazole-4-sulfonamide]",1 to 10
